In PubChem BioAssay AID248 (DTP/NCI, 2004):
Several values for one entry are separate records, joined by “and”; a condition that tells them apart may be missing. Equal entries are not always repeated. Inconclusive results and toxic doses are left out. Cut-off read from the data, not from the text of the source: active = T/C of 150% or more; inactive = T/C below 125%.

Test system: L1210 leukemia ip in BDF1 mice, survival T/C
Test: NCI In Vivo Anticancer Drug Screen. Data for tumor model L1210 Leukemia (intraperitoneal) in B6D2F1 (BDF1) mice
Conditions: endpoint: mean survival time, higher = longer survival
Method in brief: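 Antitumor effect is assessed in tumor-bearing animals. Survival in the compound arm is compared with a vehicle-dosed control arm and expressed as their quotient.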

[1] = dose: 25.0 mg/kg/injection, schedule: Q01DX009 (ip), vehicle: saline
[2] = dose: 100.0 mg/kg/injection, schedule: Q01DX001 (ip), vehicle: saline
[3] = dose: 200.0 mg/kg/injection, schedule: Q01DX001 (ip), vehicle: saline
[4] = dose: 400.0 mg/kg/injection, schedule: Q01DX001 (ip), vehicle: saline
[5] = dose: 100.0 mg/kg/injection, schedule: Q04DX002 (ip), vehicle: saline
[6] = dose: 200.0 mg/kg/injection, schedule: Q04DX002 (ip), vehicle: saline
[7] = dose: 100.0 mg/kg/injection, schedule: Q04DX003 (ip), vehicle: Klucel (hydroxypropylcellulose) (HPC)
[8] = dose: 200.0 mg/kg/injection, schedule: Q04DX003 (ip), vehicle: Klucel (hydroxypropylcellulose) (HPC)
[9] = dose: 400.0 mg/kg/injection, schedule: Q04DX003 (ip), vehicle: Klucel (hydroxypropylcellulose) (HPC)
[10] = dose: 100.0 mg/kg/injection, schedule: Q01DX001 (ip), vehicle: saline with Tween-80
[11] = dose: 100.0 mg/kg/injection, schedule: Q01DX009 (ip), vehicle: saline with Tween-80
[12] = dose: 100.0 mg/kg/injection, schedule: Q04DX002 (ip), vehicle: saline with Tween-80
[13] = dose: 100.0 mg/kg/injection, schedule: Q04DX003 (ip), vehicle: saline with Tween-80
[14] = dose: 200.0 mg/kg/injection, schedule: Q01DX009 (ip), vehicle: saline with Tween-80
[15] = dose: 200.0 mg/kg/injection, schedule: Q04DX002 (ip), vehicle: saline with Tween-80
[16] = dose: 200.0 mg/kg/injection, schedule: Q04DX003 (ip), vehicle: saline with Tween-80
[17] = dose: 400.0 mg/kg/injection, schedule: Q01DX009 (ip), vehicle: saline with Tween-80
[18] = dose: 400.0 mg/kg/injection, schedule: Q04DX002 (ip), vehicle: saline with Tween-80
[19] = dose: 400.0 mg/kg/injection, schedule: Q04DX003 (ip), vehicle: saline with Tween-80
[20] = dose: 100.0 mg/kg/injection, schedule: Q01DX009 (ip), vehicle: Klucel (hydroxypropylcellulose) (HPC)
[21] = dose: 200.0 mg/kg/injection, schedule: Q01DX009 (ip), vehicle: Klucel (hydroxypropylcellulose) (HPC)
[22] = dose: 400.0 mg/kg/injection, schedule: Q01DX009 (ip), vehicle: Klucel (hydroxypropylcellulose) (HPC)

Measured: T/C

O=C1C[N+]2(CCCCC2)c2ccc(Cl)cc2N1
inactive: dose: 6.25 mg/kg/injection, schedule: Q01DX009 (ip), vehicle: saline 87 % of control | dose: 6.25 mg/kg/injection, schedule: Q04DX003 (ip), vehicle: saline 91 % of control | dose: 12.5 mg/kg/injection, schedule: Q01DX009 (ip), vehicle: saline 92 % of control | dose: 12.5 mg/kg/injection, schedule: Q04DX003 (ip), vehicle: saline 91 % of control | [1] 95 % of control | dose: 25.0 mg/kg/injection, schedule: Q04DX003 (ip), vehicle: saline 93 % of control

CCCCC/C=C\C/C=C/CCCCCCCC1=NC(C)(CO)CO1 (stereo unspecified)
inactive: [2] 92 % of control | [3] 98 % of control | [4] 98 % of control

CN(C)/C=C1\CCOC1=O
inactive: [5] 101 % of control | [6] 119 % of control

CCCCCCCCCCCCCCCCOc1ccc(-c2cc(=O)n(C)n2C)cc1
inactive: [7] 95 % of control | [8] 101 % of control | [9] 95 % of control

COc1cc([N+](=O)[O-])ccc1NC(=O)N(C)Cc1ccccc1
inactive: dose: 50.0 mg/kg/injection, schedule: Q01DX001 (ip), vehicle: saline with Tween-80 95 % of control | [10] 93 % of control | [11] 96 % of control | [12] 92 % of control and 93 % of control | [13] 116 % of control | [14] 98 % of control | [15] 94 % of control and 102 % of control | [16] 98 % of control | dose: 400.0 mg/kg/injection, schedule: Q01DX001 (ip), vehicle: saline with Tween-80 87 % of control and 88 % of control | [17] 94 % of control | [18] 93 % of control and 101 % of control | [19] 101 % of control

N#Cc1nccc2ccc(OCc3ccc(Br)cc3)cc12
inactive: [13] 88 % of control | [16] 86 % of control | [19] 89 % of control

CC1(C)N=C(N)N=C(N)N1c1cccc(CCCCc2ccc(Cl)c(S(=O)(=O)F)c2)c1
inactive: dose: 7.0 mg/kg/injection, schedule: Q04DX003 (ip), vehicle: saline 97 % of control | dose: 12.5 mg/kg/injection, schedule: Q01DX009 (ip), vehicle: saline sonified 91 % of control | dose: 12.5 mg/kg/injection, schedule: Q04DX003 (ip), vehicle: saline sonified 100 % of control | dose: 14.0 mg/kg/injection, schedule: Q04DX003 (ip), vehicle: saline 95 % of control | dose: 25.0 mg/kg/injection, schedule: Q04DX003 (ip), vehicle: saline sonified 102 % of control | dose: 28.0 mg/kg/injection, schedule: Q04DX003 (ip), vehicle: saline 88 % of control | dose: 50.0 mg/kg/injection, schedule: Q04DX003 (ip), vehicle: saline sonified 96 % of control | dose: 56.0 mg/kg/injection, schedule: Q04DX003 (ip), vehicle: saline 93 % of control

CC(C)COC(c1ccc2c(c1)OCO2)C(C)Br (stereo unspecified)
inactive: [12] 96 % of control | [15] 101 % of control | [18] 107 % of control

CC#CCOCC1CN(c2ccccc2)C(=O)O1 (stereo unspecified)
inactive: [11] 117 % of control | [13] 95 % of control | [14] 103 % of control | [16] 103 % of control | [17] 100 % of control | [19] 101 % of control

CCOC(=O)CNc1ccc(F)c(C(F)(F)F)c1
inactive: [5] 95 % of control and 107 % of control | [6] 103 % of control and 92 % of control | dose: 400.0 mg/kg/injection, schedule: Q04DX002 (ip), vehicle: saline 110 % of control | dose: 600.0 mg/kg/injection, schedule: Q04DX002 (ip), vehicle: saline 95 % of control

CCCCCCCCCCCCNC(=O)CCl
inactive: [20] 87 % of control | [7] 91 % of control | [21] 90 % of control | [8] 89 % of control | [22] 91 % of control

CCC1(O)CC2CN(CCc3c([nH]c4ccccc34)C(C(=O)OC)(c3cc4c(cc3OC)N(C)C3C(O)(C(=O)NCCSSCCNC(=O)C5(O)C(O)C6(CC)C=CCN7CCC8(c9cc(C%10(C(=O)OC)CC%11CN(CCc%12c%10[nH]c%10ccccc%12%10)CC(O)(CC)C%11)c(OC)cc9N(C)C58)C76)C(O)C5(CC)C=CCN6CCC43C65)C2)C1 (stereo unspecified)
active: dose: 1800.0 micrograms/kg/injection, schedule: Q04DX003 (ip), vehicle: saline 154 % of control
inactive: dose: 3000.0 micrograms/kg/injection, schedule: Q04DX003 (ip), vehicle: saline 119 % of control

CCOC(=O)N1CCN2C(=O)N(CC)CCC2C1 (stereo unspecified)
inactive: [2] 93 % of control | [3] 93 % of control | [4] 94 % of control

Nc1cc(Nc2ccc(S(N)(=O)=O)cc2)nc(N)n1
inactive: [7] 93 % of control | [8] 97 % of control | [9] 93 % of control

O=[As](O)(CC(O)COc1ccc(Cl)cc1Cl)c1ccc(Cl)cc1 (stereo unspecified)
inactive: dose: 6.25 mg/kg/injection, schedule: Q01DX001 (ip), vehicle: saline with Tween-80 105 % of control | dose: 12.5 mg/kg/injection, schedule: Q01DX001 (ip), vehicle: saline with Tween-80 98 % of control | dose: 25.0 mg/kg/injection, schedule: Q01DX001 (ip), vehicle: saline with Tween-80 98 % of control | [10] 91 % of control

O=C(O)c1ccc(N=Nc2nc3ccccc3[nH]2)cc1
inactive: dose: 50.0 mg/kg/injection, schedule: Q01DX009 (ip), vehicle: Klucel (hydroxypropylcellulose) (HPC) 90 % of control | [20] 93 % of control | [21] 90 % of control

CCC(C)C(C)C(C)=O (stereo unspecified)
inactive: dose: 50.0 mg/kg/injection, schedule: Q01DX001 (ip), vehicle: saline 110 % of control | [2] 101 % of control | [3] 93 % of control

CC(C)=CCC/C(C)=C/C#N
inactive: dose: 100.0 mg/kg/injection, schedule: Q01DX001 (ip), vehicle: carboxymethylcellulose (CMC) 100 % of control | dose: 200.0 mg/kg/injection, schedule: Q01DX001 (ip), vehicle: carboxymethylcellulose (CMC) 111 % of control | dose: 400.0 mg/kg/injection, schedule: Q01DX001 (ip), vehicle: carboxymethylcellulose (CMC) 94 % of control

CCOC(=O)OC1C(OC)OC2COC(c3ccccc3)OC2C1OC(=O)OCC (stereo unspecified)
inactive: dose: 100.0 mg/kg/injection, schedule: Q04DX002 (ip), vehicle: other 103 % of control | dose: 200.0 mg/kg/injection, schedule: Q04DX002 (ip), vehicle: other 97 % of control | dose: 400.0 mg/kg/injection, schedule: Q04DX002 (ip), vehicle: other 100 % of control

O=[N+]([O-])c1ccc(C2=CSC3=NCCN23)cc1
inactive: dose: 5.0 mg/kg/injection, schedule: Q01DX001 (ip), vehicle: saline 97 % of control | dose: 10.0 mg/kg/injection, schedule: Q01DX001 (ip), vehicle: saline 95 % of control | dose: 20.0 mg/kg/injection, schedule: Q01DX001 (ip), vehicle: saline 95 % of control | [1] 110 % of control | dose: 40.0 mg/kg/injection, schedule: Q01DX001 (ip), vehicle: saline 97 % of control | dose: 50.0 mg/kg/injection, schedule: Q01DX009 (ip), vehicle: saline 95 % of control

Cc1nnnn1C1CCCCC1I (stereo unspecified)
inactive: dose: 10.0 mg/kg/injection, schedule: Q01DX001 (ip), vehicle: other 102 % of control | dose: 20.0 mg/kg/injection, schedule: Q01DX001 (ip), vehicle: other 88 % of control

CCOC(=O)c1ccc(NC(=S)NC(Cc2ccccc2)c2ccccc2)cc1 (stereo unspecified)
inactive: [12] 98 % of control | [15] 95 % of control | [18] 95 % of control

Cc1ccc(N)cc1
inactive: [2] 114 % of control | [3] 102 % of control

CC(C)N(CSc1ccc([N+](=O)[O-])cc1)CSc1ccc([N+](=O)[O-])cc1
inactive: [2] 100 % of control | [3] 96 % of control | [4] 98 % of control

Cc1ccc(S(=O)(=O)NS(=O)(=O)c2ccc(C)cc2)cc1
inactive: [2] 101 % of control | [7] 100 % of control | [3] 106 % of control

COC(=O)C(c1ccccc1)C(Br)C(=O)c1ccc(Cl)cc1 (stereo unspecified)
inactive: [20] 92 % of control | [21] 97 % of control | [22] 94 % of control

COc1cccc(C(C)(C)CO)c1
inactive: dose: 50.0 mg/kg/injection, schedule: Q01DX009 (ip), vehicle: saline with Tween-80 93 % of control | [11] 89 % of control | [14] 89 % of control

CCCCSN1CCCCC1
inactive: [12] 93 % of control | [15] 93 % of control
